Source: patent US20120128614A1, “SOLVENT, SOLUTION, CLEANING COMPOSITION AND METHODS” (SEGETIS, INC., priority 2009, published 2012)
Values belong to the compound of their own block, whether it stands above or below them.

Legend:
[1] = 2,2,4-Trimethyl-1,3-pentanediol (2-methylpropanoate) (Texanol) solubilization into water by cosolvent; conditions: about 25° C.
Protocol: To assess the ability of Et-LGK to solubilize Texanol into water, Et-LGK is added to each of these mixtures with vigorous stirring in a 20 mL scintillation vial at about 25° C. until a clear solution is obtained.
The concentrations of these comparative solvents (in volume %) needed in each case to form a clear solution is reported in Table 6 as Comparative Samples G, H and I, respectively.

[2] = Isobutyl isobutyrate (IBIB) solubilization into water by cosolvent; conditions: about 25° C.
Protocol: To assess the ability of Et-LGK to solubilize IBIB into water, Et-LGK is added to each of these mixtures with vigorous stirring in a 20 mL scintillation vial at about 25° C. until a clear solution is obtained.

[3] = Castor oil solubilization into water by cosolvent; conditions: about 25° C.
Protocol: Mixtures of water and castor oil ChemistryStore.com; Cayce, S.C.) are prepared at 10/90, 25/75, 50/50, 75/25 and 90/10 volume ratios. […] To assess the ability of Et-LGK to solubilize castor oil into water, Et-LGK is added to each of these mixtures with vigorous stirring in a 20 mL scintillation vial at about 25° C. until a clear solution is obtained.

[4] = Soya methyl esters solubilization into water by cosolvent; conditions: about 25° C.
Protocol: Mixtures of water and soya methyl esters (Stepan Chemical, Northfield, Ill.) are prepared at 10/90, 25/75, 50/50, 75/25 and 90/10 volume ratios.

[5] = Bleach and peroxide stability evaluations with Et-LGK (GC/FID); assay type: physicochemical; conditions: after storing for 96 hours
Protocol: Examples 2-3 and a control (non-bleach) formulation are prepared by combining the ingredients indicated in Table 1 in a 20 ml borosilicate glass scintillation vial, followed by shaking vigorously to form a clear, colorless solution. All formulations are clear, colorless homogenous solutions after standing for three days at room temperature.
After storing for 96 hours, GC/FID analysis is performed to assess the stability of Examples 2 and 3 and Comparative Sample A. Three analyses are performed with each test sample. […] For Example 1, the Et-LGK concentration is about 9.4%, indicating a slight degradation of the material in the presence of the chlorine bleach.

[6] = Miscibility of alkyl ketal esters with water; assay type: physicochemical; conditions: for miscibility with water: miscibility assessed at 25° C. unless stated otherwise
From the text: The term “miscible” and its variations (“miscibility”, etc.) are used herein as a synonym for “soluble”, as that term is defined above. A material may be fully or partially miscible in another. As used herein, a material said to be “miscible” in another, without further qualification, is miscible with that other material in all proportions, i.e., mixtures that contain only the two components form clear homogenous solutions in all weight ratios from 99.9:0.1 to 0.1:99.9. A material is said to be “highly miscible” in another material if it is soluble in the other material to the extent of at least 20 parts in 80 parts of the other material, and preferably is soluble in that other material to the extent of at least 50 parts in 50 parts of the other material. A “highly miscible” material may be soluble in the other material to the extent of 99.9 parts to 0.1 part of that other material and all lower proportions. A material is said to be “sparingly miscible” in another (or has “low miscibility” in another material) if is immiscible (as defined below) therein or otherwise not soluble in that other material to the extent of 20 parts in 80 parts of the other material. A sparingly miscible material may be soluble in that other material to the extent of no more than 10 parts in 90 parts of that other material, and may be soluble in that other material to the extent of no more than 5 parts in 95 parts of the other material. A material is said to be “immiscible” in another if it is not soluble by itself in that material to the extent of at least 1 part per 99 parts of the other material. Unless stated otherwise, miscibility is assessed at 25° C.

[7] = Et-LPK solubilization in Et-LGK/water mixtures (visual miscibility); assay type: physicochemical
Protocol: Several three-component mixtures of Et-LGK, water and Et-LPK are prepared by mixing the materials the above materials at room temperature in a 20 ml scintillation vial with shaking. The mixtures prepared are analyzed visually for miscibility. Clear mixture are considered to be “miscible”, and mixtures, which are cloudy or form two or more distinct phases are considered to be “immiscible” on this test.

[8] = Miscibility of alkyl ketal esters with organic compounds; assay type: physicochemical; conditions: methanol, ethanol, tetrahydrofuran, acetone, ethyl acetate, methylene chloride, toluene, cyclohexane, acetic acid, poly(propylene glycol), mineral, castor, canola, corn, sunflower oil
From the text: The term “miscible” and its variations (“miscibility”, etc.) are used herein as a synonym for “soluble”, as that term is defined above. A material may be fully or partially miscible in another. As used herein, a material said to be “miscible” in another, without further qualification, is miscible with that other material in all proportions, i.e., mixtures that contain only the two components form clear homogenous solutions in all weight ratios from 99.9:0.1 to 0.1:99.9. A material is said to be “highly miscible” in another material if it is soluble in the other material to the extent of at least 20 parts in 80 parts of the other material, and preferably is soluble in that other material to the extent of at least 50 parts in 50 parts of the other material. A “highly miscible” material may be soluble in the other material to the extent of 99.9 parts to 0.1 part of that other material and all lower proportions. A material is said to be “sparingly miscible” in another (or has “low miscibility” in another material) if is immiscible (as defined below) therein or otherwise not soluble in that other material to the extent of 20 parts in 80 parts of the other material. […] Unless stated otherwise, miscibility is assessed at 25° C.

[9] = Bleach stability evaluation with Et-LPK (GC-FID purity); assay type: physicochemical; conditions: 8 ml Et-LPK stirred overnight with 2 ml 6% sodium hypochlorite in water; organic phase analysed
Protocol: The purity of an Et-LPK sample is measured by GC-FID (Model No. 7890A Gas Chromatograph w/ Flame Ionization Detector; Agilent Technologies, Santa Clara, Calif.). In a 20 ml vial (borosilicate scintillation; VWR International, West Chester, Pa.), 2 ml of a 6% sodium hypochlorite (bleach; Clorox Co., Oakland, Calif.) in water is mixed with 8 ml of Et-LPK to form a mixture. The mixture is shaken vigorously to produce a nearly clear solution. The mixture is further stirred overnight on a magnetic stir plate with a magnetic stir bar. Upon standing, the mixture separates into two phases—an upper organic phase and a bottom aqueous phase. A sample of the organic phase is analyzed by GC-FID to determine the purity of the Et-LPK after mixing.

Compound: CCOC(=O)CC1(C)OCC(CO)O1 (centres unmarked) [Et-AcAcGK]
miscibility with water [6]: miscible with water in all proportions

Compound: COC(=O)CCC1(C)OCC(CO)O1 (centres unmarked) [Me-LGK]
miscibility with water [6]: miscible with water in all proportions

Compound: CCCOC(=O)CCC1(C)OCC(CO)O1 (centres unmarked) [n-propyl-LGK]
miscible with water to the extent of [6]: about 1 part per 99 parts water

Compound: COC(=O)CC1(C)OCC(CO)O1 (centres unmarked) [Me-AcAcGK]
miscibility with water [6]: miscible with water in all proportions

More lines, main results first:

Required amount of cosolvent to obtain clear solution ([1]; 10/90 Water/Texanol ratio by volume): 44.4 vol.-% | Required amount of cosolvent to obtain clear solution ([1]; 25/75 Water/Texanol ratio by volume): 50.9 vol.-% | Required amount of cosolvent to obtain clear solution ([1]; 50/50 Water/Texanol ratio by volume): 55.2 vol.-% | Required amount of cosolvent to obtain clear solution ([1]; 75/25 Water/Texanol ratio by volume): 54.1 vol.-% | Required amount of cosolvent to obtain clear solution ([1]; 90/10 Water/Texanol ratio by volume): 51.6 vol.-% | Required amount of cosolvent to obtain clear solution ([2]; 10/90 Water/IBIB ratio by volume): 54.5 vol. % | Required amount of cosolvent to obtain clear solution ([2]; 25/75 Water/IBIB ratio by volume): 53.3 vol. % | Required amount of cosolvent to obtain clear solution ([2]; 50/50 Water/IBIB ratio by volume): 58.9 vol. % | Required amount of cosolvent to obtain clear solution ([2]; 75/25 Water/IBIB ratio by volume): 60.0 vol. % | Required amount of cosolvent to obtain clear solution ([2]; 90/10 Water/IBIB ratio by volume): 62.5 vol. % | Required amount of cosolvent to obtain clear solution ([3]; 10/90 Water/castor oil ratio by volume): 55.9 vol.-% | Required amount of cosolvent to obtain clear solution ([3]; 25/75 Water/castor oil ratio by volume): 65.4 vol.-% | Required amount of cosolvent to obtain clear solution ([3]; 50/50 Water/castor oil ratio by volume): 73.5 vol.-% | Required amount of cosolvent to obtain clear solution ([3]; 75/25 Water/castor oil ratio by volume): 78.9 vol.-% | Required amount of cosolvent to obtain clear solution ([3]; 90/10 Water/castor oil ratio by volume): 80.6 vol.-% | Required amount of cosolvent to obtain clear solution ([4]; 10/90 Water/soya methyl ester ratio by volume): 48.3 vol.-% | Required amount of cosolvent to obtain clear solution ([4]; 25/75 Water/soya methyl ester ratio by volume): 62.6 vol.-% | Required amount of cosolvent to obtain clear solution ([4]; 50/50 Water/soya methyl ester ratio by volume): 73.6 vol.-% | Required amount of cosolvent to obtain clear solution ([4]; 75/25 Water/soya methyl ester ratio by volume): 78.3 vol.-% | Required amount of cosolvent to obtain clear solution ([4]; 90/10 Water/soya methyl ester ratio by volume): 78.3 vol.-%
Compound: COC(C)COC(C)CO (centres unmarked) [DPGMME, dipropylene glycol monomethyl ether]

Et-LGK concentration (GC/FID) ([5]; control (non-bleach) formulation): about 10% | Et-LGK concentration (GC/FID) ([5]; formulation with 6% sodium hypochlorite solution (Table 1 'Example 1')): about 9.4% | Et-LGK concentration (GC/FID) ([5]; formulation with hydrogen peroxide (Table 1 'Example 2')): the same as the control | miscibility with water [6]: miscible in water in all proportions
Compound: CCOC(=O)CCC1(C)OCC(CO)O1 (centres unmarked) [Et-LGK]

miscible in water to the extent of [6]: about 5 parts per 95 parts of water
Compound: CCOC(=O)CCC1(C)OCCO1 [Et-LEK]

Et-LPK concentration obtained in a miscible mixture with water and Et-LGK ([7]; Mixture 18): ~55 wt. % | miscibility of Et-LPK in water ([7]; at the 10.9% level, no Et-LGK): immiscible | change in purity of Et-LPK (GC-FID) versus initial purity [9]: little to no change in the purity | miscible in water to the extent of [6]: about 2.5 parts in 97.5 parts of water
Compound: CCOC(=O)CCC1(C)OCC(C)O1 (centres unmarked) [Et-LPK]
dissolves or is miscible with organic compounds to the extent of [8]: at least 20 parts of the organic compound in 80 parts of ethyl-LPK

miscible with water to the extent of [6]: about 1 part per 99 parts water
Compound: CCCCOC(=O)CCC1(C)OCC(CO)O1 (centres unmarked) [n-butyl-LGK]
